Reference: US9090565B2, “1-pyridazinyl-hydroxyimino-3-phenyl-propanes” (Hoffmann-La Roche Inc., priority 2011, dated 2015)

These compounds were tested against T1, human GPBAR1 receptor (Homo sapiens, UniProt Q8TDU6) (assay: functional cAMP assay in CHO-dhfr(minus) cells expressing human GPBAR1 receptors). Details: TR-FRET, 30 min at 30° C.
T1 construct: expressed in transfected cells
T1 sequence (Q8TDU6 1-330): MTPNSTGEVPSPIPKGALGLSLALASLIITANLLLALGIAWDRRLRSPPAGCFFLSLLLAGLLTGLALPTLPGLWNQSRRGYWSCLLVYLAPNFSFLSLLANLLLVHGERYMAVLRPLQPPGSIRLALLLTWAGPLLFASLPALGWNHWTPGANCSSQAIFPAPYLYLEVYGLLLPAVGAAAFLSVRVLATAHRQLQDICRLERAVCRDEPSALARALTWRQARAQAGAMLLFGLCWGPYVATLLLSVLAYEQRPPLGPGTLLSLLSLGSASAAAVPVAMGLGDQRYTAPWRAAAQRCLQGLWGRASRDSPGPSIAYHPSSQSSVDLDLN
Assay type: cell-based
Description: The cDNA of the human GPBAR1 receptor (Genbank: NM_170699 with the exception of a silent C:G mutation at position 339 from the start codon) was amplified by polymerase chain reaction (PCR) from human cDNA and inserted into pCineo (Promega) by standard methods (Current Protocols in Molecular Biology, Wiley Press, ed. Ausubel et al.). The final clone was verified by DNA sequence analysis. The plasmid was transfected into CHO cells deficient in dihydrofolate reductase activity (CHO-dhfr-) using Lipofectamine plus (Invitrogen). Clones were isolated in limited dilution conditions and identified by activities in the cAMP assay using lithocholic acid as agonist. A clonal cell line displaying the greatest activity in cAMP increases was selected and identified as giving consistently good responses for up to at least 20 passages.
CHO-dhfr(minus) cells expressing human GPBAR1 receptors are seeded 17-24 hours prior to the experiment 50,000 cells per well in a black 96 well plate with flat clear bottom (Corning Costar #3904) in DMEM (Invitrogen No. 31331), 1×HT supplement, with 10% fetal calf serum and incubated at 5% CO2 and 37° C. in a humidified incubator. The growth medium was exchanged with Krebs Ringer Bicarbonate buffer with 1 mM IBMX and incubated at 30° C. for 30 min. Compounds were added to a final assay volume of 100 μl and incubated for 30 min at 30° C. The assay was stopped by the addition of 50 μl lysis reagent (Tris, NaCl, 1.5% Triton X100, 2.5% NP40, 10% NaN3) and 50 μl detection solutions (20 μM mAb Alexa700-cAMP 1:1, and 48 μM Ruthenium-2-AHA-cAMP) and shaked for 2 h at room temperature. The time-resolved energy transfer is measured by a TRF reader (Evotec Technologies GrmbH, Hamburg Germany), equipped with a ND:YAG laser as excitation source. The plate is measured twice with the excitation at 355 nm and at the emission with a delay of 100 ns and a gate of 100 ns, total exposure time 10 s at 730 (bandwidth 30 nm) or 645 nm (bandwidth 75 nm), respectively. The measured signal at 730 nm has to be corrected for the ruthenium background, the direct excitation of Alexa and the buffer control. The FRET signal is calculated as follows: FRET=T730−Alexa730-P(T645−B645) with P=Ru730−B730/Ru645−B645, where T730 is the test well measured at […], T645 is the test well measured at 645 nm, B730 and B645 are the buffer controls at 730 nm and 645 nm, respectively, cAMP content is determined from the function of a standard curve spanning from 10 μM to 0.13 nM cAMP.
EC50 values were determined using Activity Base analysis (ID Business Solution, Limited). The EC50 values for a wide range of bile acids generated from this assay were in agreement with the values published in the scientific literature. Specificity for GPBAR1 was tested in non-transfected CHO cells in the same assay as above.

Structure (SMILES)	EC50 [nM]
COc1nnccc1/C(C[C@@H](c1ccc(Br)cc1)c1ccccc1C)=N/O [Example 4, (S,E)-3-(4-bromophenyl)-1-(3-methoxypyridazin-4-yl)-3-o-tolylpropan-1-one oxime]	31
Cc1ccccc1[C@@H](C/C(=N\O)c1ccn[nH]c1=O)c1ccc(Br)cc1 [Example 5, (S,E)-4-(3-(4-Bromophenyl)-1-(hydroxyimino)-3-o-tolylpropyl)pyridazin-3(2H)-one]	148
Cc1ccccc1[C@@H](C/C(=N\O)c1ccnn(C)c1=O)c1ccc(Br)cc1 [Example 6, (S,E)-4-(3-(4-Bromophenyl)-1-(hydroxyimino)-3-o-tolylpropyl)-2-methylpyridazin-3(2H)-one]	90
Cc1ccccc1[C@H](C/C(=N\O)c1ccc(=O)n(C)n1)c1ccc(C2CCN(S(C)(=O)=O)CC2)cc1 [Example 8, (R,E)-6-(1-(Hydroxyimino)-3-(4-(1-(methylsulfonyl)piperidin-4-yl)phenyl)-3-o-tolylpropyl)-2-methylpyridazin-3(2H)-one]	33
Cc1ccccc1[C@H](C/C(=N\O)c1ccc(=O)n(C)n1)c1ccc(S(C)(=O)=O)cc1 [Example 10, (R,E)-6-(1-(Hydroxyimino)-3-(4-(methylsulfonyl)phenyl)-3-o-tolylpropyl)-2-methylpyridazin-3(2H)-one]	60
COc1nnccc1/C(C[C@H](c1ccc(C2CCN(S(C)(=O)=O)CC2)cc1)c1ccccc1C)=N/O [Example 11, (R,E)-1-(3-Methoxypyridazin-4-yl)-3-(4-(1-(methylsulfonyl)piperidin-4-yl)phenyl)-3-o-tolylpropan-1-one oxime]	52
Cc1ccccc1[C@H](C/C(=N\O)c1ccnn(C)c1=O)c1ccc(C2CCN(S(C)(=O)=O)CC2)cc1 [Example 13, (R,E)-4-(1-(Hydroxyimino)-3-(4-(1-(methylsulfonyl)piperidin-4-yl)phenyl)-3-o-tolylpropyl)-2-methylpyridazin-3(2H)-one]	179
Cc1ccccc1[C@@H](C/C(=N\O)c1ccc(=O)[nH]n1)c1ccc(Br)cc1 [Example 14, (S,E)-6-(3-(4-Bromophenyl)-1-(hydroxyimino)-3-o-tolylpropyl)pyridazin-3(2H)-one]	648

More lines, in order of falling EC50, values ahead:

EC50 [nM]	Structure (SMILES)
1560	Cc1ccccc1C(C/C(=N\O)c1ccnnc1)c1ccc(-c2ccc(C(=O)O)cc2)cc1 (centres unmarked) [Example 2, (E)-4′-(3-(hydroxyimino)-3-(pyridazin-4-yl)-1-o-tolylpropyl)biphenyl-4-carboxylic acid]
956	Cc1ccccc1C(C/C(=N\O)c1ccnnc1)c1ccc(C2CCN(S(C)(=O)=O)CC2)cc1 (centres unmarked) [Example 3, (E)-3-(4-(1-(methylsulfonyl)piperidin-4-yl)phenyl)-1-(pyridazin-4-yl)-3-o-tolylpropan-1-one oxime]
527	Cc1ccccc1[C@H](C/C(=N\O)c1ccn[nH]c1=O)c1ccc(C2CCN(S(C)(=O)=O)CC2)cc1 [Example 12, (R,E)-4-(1-(Hydroxyimino)-3-(4-(1-(methylsulfonyl)piperidin-4-yl)phenyl)-3-o-tolylpropyl)pyridazin-3(2H)-one]
80	Cc1ccccc1[C@H](C/C(=N\O)c1ccnnc1)c1ccc(Br)cc1 [Example 1, (R,E)-3-(4-Bromophenyl)-1-(pyridazin-4-yl)-3-o-tolylpropan-1-one oxime]
61	Cc1ccccc1[C@H](C/C(=N\O)c1ccc(=O)n(C)n1)c1ccc(-c2ccc(C(=O)O)cc2)cc1 [Example 9, (R,E)-4′-(3-(Hydroxyimino)-3-(1-methyl-6-oxo-1,6-dihydropyridazin-3-yl)-1-o-tolylpropyl)biphenyl-4-carboxylic acid]
6	Cc1ccccc1[C@H](C/C(=N\O)c1ccc(=O)n(C)n1)c1ccc(Br)cc1 [Example 7, (R,E)-6-(3-(4-Bromophenyl)-1-(hydroxyimino)-3-o-tolylpropyl)-2-methylpyridazin-3(2H)-one]
